Laboratory results from ChEMBL document CHEMBL4665775, “Half-life extension of peptidic APJ agonists by N-terminal lipid conjugation” (Bioorg Med Chem Lett, 2020).

Key:
[1] = Plasma protein binding in rat assessed as unbound fraction by LC-MS/MS analysis; format: ADME, cell-free
[2] = Half life in Sprague-Dawley rat at 0.1 mg/kg, iv administered as single dose and measured up to 48 hrs; format: ADME, organism-based; details: in vivo
[3] = Stability in rat liver S9 fraction assessed as compound remaining at 4 hrs; format: ADME, subcellular; details: read-out: Stabilty
[4] = AUC (0 to t) in Sprague-Dawley rat at 0.1 mg/kg, iv administered as single dose and measured up 48 hrs; format: ADME, organism-based; design: dose 0.1 mg/kg, time <=48; details: in vivo
[5] = Volume of distribution at steady state in Sprague-Dawley rat at 0.1 mg/kg, iv administered as single dose and measured up to 48 hrs; format: ADME, organism-based; details: in vivo, read-out: Vdss
[6] = Stability in rat Kidney S9 fraction assessed as compound remaining at 4 hrs; format: ADME, subcellular; details: read-out: Stabilty
[7] = Unbound Cmax in Sprague-Dawley rat at 0.5 mg/kg, sc administered as single dose and measured up to 48 hrs; format: ADME, organism-based; details: in vivo
[8] = Bioavailability in Sprague-Dawley rat at 0.5 mg/kg, sc administered as single dose and measured up to 48 hrs; format: ADME, organism-based; details: in vivo
[9] = Tmax in Sprague-Dawley rat at 0.5 mg/kg, sc administered as single dose and measured up to 48 hrs; format: ADME, organism-based; details: in vivo
[10] = AUC (0 to t) in Sprague-Dawley rat at 0.5 mg/kg, sc administered as single dose and measured up to 48 hrs; format: ADME, organism-based; design: route subcutaneous, dose 0.5 mg/kg, time <=48; details: in vivo
[11] = Clearance in Sprague-Dawley rat at 0.1 mg/kg, iv administered as single dose and measured up to 48 hrs; format: ADME, organism-based; details: in vivo
[12] = Half life in Sprague-Dawley rat at 0.5 mg/kg, sc administered as single dose and measured up to 48 hrs; format: ADME, organism-based; details: in vivo
[13] = Stability in rat plasma assessed as compound remaining at 4 hrs; format: ADME, cell-free; details: read-out: Stabilty
Apelin receptor = target: T1, Apelin receptor (Rattus norvegicus, UniProt Q9JHG3); test: Agonist activity at rat APJ receptor stably expressed in CHO cell membranes in presence of [35S]GTPgammaS by scintillation proximity assay; format: functional
T1 sequence (Q9JHG3 whole entry): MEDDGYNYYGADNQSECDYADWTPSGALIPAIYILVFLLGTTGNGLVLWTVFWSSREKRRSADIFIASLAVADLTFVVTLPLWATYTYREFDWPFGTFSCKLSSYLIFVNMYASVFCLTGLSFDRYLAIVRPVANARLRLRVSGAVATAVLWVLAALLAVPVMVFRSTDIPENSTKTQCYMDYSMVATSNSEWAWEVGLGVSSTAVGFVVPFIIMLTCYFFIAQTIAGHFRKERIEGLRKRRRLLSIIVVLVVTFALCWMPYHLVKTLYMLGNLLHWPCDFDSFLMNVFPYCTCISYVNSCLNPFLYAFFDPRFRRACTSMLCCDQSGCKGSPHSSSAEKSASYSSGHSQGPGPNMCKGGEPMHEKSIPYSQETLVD

[14] = Unbound clearance in Sprague-Dawley rat at 0.1 mg/kg, iv administered as single dose and measured up to 48 hrs; format: ADME, organism-based; details: in vivo

Structure (SMILES) | fraction unbound [1] | half-life [2] | remaining at 4 h [3] | AUC(0-t) at 48 h [4] | Vd [5] | remaining at 4 h [6] | fCmax [7] | bioavailability [8] | Tmax [9] | AUC(0-t) at 48 h [10] | clearance [11] | half-life [12] | remaining at 4 h [13] | EC50 (Apelin receptor) | CL free [14]
CCCCCCCCCCCCCCCCC(=O)N[C@@H](CCC(=O)NCCOCCOCC(=O)NCCOCCOCC(=O)N[C@@H](CCCCNC(=N)N)C(=O)N[C@H](CCCNC(=N)N)C(=O)N[C@@H](CCC(N)=O)C(=O)N[C@@H](CCCCNC(=N)N)C(=O)N1CCC[C@H]1C(=O)N[C@H](CCCNC(=N)N)C(=O)N(C)[C@@H](CC(C)C)C(=O)N[C@@H](CO)C(=O)N[C@@H](Cc1c[nH]cn1)C(=O)N[C@@H](CCCCN)C(=O)NCC(=O)N1[C@H](C(=O)N[C@@H](Cc2ccc(I)cc2)C(=O)N2CCC[C@H]2C(=O)N[C@H](Cc2ccc(-c3ccccc3)cc2)C(=O)O)C[C@@H]2CCCC[C@@H]21)C(=O)O | 0.0064 | 2.18 h | 68% | 0.465 µM·h | 0.092 L/kg | 83% | 0.27 nM | 36% | 12 h | 0.753 µM·h | 1.23 mL/min/kg | 10.3 h | 79% | 7.42 nM | 200 mL/min/kg
CCCCCC(=O)N[C@@H](CCC(=O)NCCOCCOCC(=O)NCCOCCOCC(=O)N[C@@H](CCCCNC(=N)N)C(=O)N[C@H](CCCNC(=N)N)C(=O)N[C@@H](CCC(N)=O)C(=O)N[C@@H](CCCCNC(=N)N)C(=O)N1CCC[C@H]1C(=O)N[C@H](CCCNC(=N)N)C(=O)N(C)[C@@H](CC(C)C)C(=O)N[C@@H](CO)C(=O)N[C@@H](Cc1c[nH]cn1)C(=O)N[C@@H](CCCCN)C(=O)NCC(=O)N1[C@H](C(=O)N[C@@H](Cc2ccc(I)cc2)C(=O)N2CCC[C@H]2C(=O)N[C@H](Cc2ccc(-c3ccccc3)cc2)C(=O)O)C[C@@H]2CCCC[C@@H]21)C(=O)O | 0.0034 | 2.31 h |  | 0.372 µM·h | 0.203 L/kg |  | 0.37 nM | 56% | 4 h | 1.05 µM·h | 1.64 mL/min/kg | 2.6 h |  | 2.31 nM | 483 mL/min/kg
CCCCCCCCCCCCCCC(=O)N[C@@H](CCC(=O)NCCOCCOCC(=O)NCCOCCOCC(=O)N[C@@H](CCCCNC(=N)N)C(=O)N[C@H](CCCNC(=N)N)C(=O)N[C@@H](CCC(N)=O)C(=O)N[C@@H](CCCCNC(=N)N)C(=O)N1CCC[C@H]1C(=O)N[C@H](CCCNC(=N)N)C(=O)N(C)[C@@H](CC(C)C)C(=O)N[C@@H](CO)C(=O)N[C@@H](Cc1c[nH]cn1)C(=O)N[C@@H](CCCCN)C(=O)NCC(=O)N1[C@H](C(=O)N[C@@H](Cc2ccc(I)cc2)C(=O)N2CCC[C@H]2C(=O)N[C@H](Cc2ccc(-c3ccccc3)cc2)C(=O)O)C[C@@H]2CCCC[C@@H]21)C(=O)O | 0.0021 | 1.84 h | 66% | 0.426 µM·h | 0.074 L/kg | 84% | 0.07 nM | 24% | 8 h | 0.404 µM·h | 1.35 mL/min/kg | 6.3 h | > 90% | 4.39 nM | 650 mL/min/kg
CC(C)C[C@@H](C(=O)N[C@@H](CO)C(=O)N[C@@H](Cc1c[nH]cn1)C(=O)N[C@@H](CCCNC(=N)N)C(=O)NCC(=O)N1[C@H](C(=O)N[C@@H](Cc2ccc(I)cc2)C(=O)N2CCC[C@H]2C(=O)N[C@H](Cc2ccc(-c3ccccc3)cc2)C(=O)O)C[C@@H]2CCCC[C@@H]21)N(C)C(=O)[C@@H](CCCNC(=N)N)NC(=O)[C@@H]1CCCN1C(=O)[C@H](CCCCNC(=N)N)NC(=O)[C@H](CCC(N)=O)NC(=O)[C@@H](CCCNC(=N)N)NC(=O)[C@H](CCCCNC(=N)N)NC(=O)COCCOCCNC(=O)COCCOCCNC(=O)CC[C@H](NC(=O)CCCCCCCCCCCCCCCCC(=O)O)C(=O)O | 0.0013 | 19.7 h | 85% | 4.45 µM·h | 0.165 L/kg | 86% | 0.33 nM | > 36% | 24 h | 9.58 µM·h | 0.11 mL/min/kg | > 24 h | > 90% | 117 nM | 85 mL/min/kg
CC(=O)N[C@@H](CCCCNC(=N)N)C(=O)N[C@H](CCCNC(=N)N)C(=O)N[C@@H](CCC(N)=O)C(=O)N[C@@H](CCCCNC(=N)N)C(=O)N1CCC[C@H]1C(=O)N[C@H](CCCNC(=N)N)C(=O)N(C)[C@@H](CC(C)C)C(=O)N[C@@H](CO)C(=O)N[C@@H](Cc1c[nH]cn1)C(=O)N[C@@H](CCCCN)C(=O)NCC(=O)N1[C@H](C(=O)N[C@@H](Cc2ccc(I)cc2)C(=O)N2CCC[C@H]2C(=O)N[C@H](Cc2ccc(-c3ccccc3)cc2)C(=O)O)C[C@@H]2CCCC[C@@H]21 | 0.179 | 0.362 h | 41% | 0.073 µM·h | 0.298 L/kg | 45% |  |  |  |  | 10.1 mL/min/kg |  | 86% | 1.95 nM | 56.2 mL/min/kg
CCCCCCCCCCCCC(=O)N[C@@H](CCC(=O)NCCOCCOCC(=O)NCCOCCOCC(=O)N[C@@H](CCCCNC(=N)N)C(=O)N[C@H](CCCNC(=N)N)C(=O)N[C@@H](CCC(N)=O)C(=O)N[C@@H](CCCCNC(=N)N)C(=O)N1CCC[C@H]1C(=O)N[C@H](CCCNC(=N)N)C(=O)N(C)[C@@H](CC(C)C)C(=O)N[C@@H](CO)C(=O)N[C@@H](Cc1c[nH]cn1)C(=O)N[C@@H](CCCCN)C(=O)NCC(=O)N1[C@H](C(=O)N[C@@H](Cc2ccc(I)cc2)C(=O)N2CCC[C@H]2C(=O)N[C@H](Cc2ccc(-c3ccccc3)cc2)C(=O)O)C[C@@H]2CCCC[C@@H]21)C(=O)O | 0.0022 | 3.4 h | 45% | 0.269 µM·h | 0.231 L/kg | 86% | 0.06 nM | 33% | 6 h | 0.349 µM·h | 2.18 mL/min/kg | 10.2 h | > 90% | 6.22 nM | 1000 mL/min/kg
CC(C)C[C@@H](C(=O)N[C@@H](CO)C(=O)N[C@@H](Cc1c[nH]cn1)C(=O)N[C@@H](CCCCN)C(=O)NCC(=O)N1[C@H](C(=O)N[C@@H](Cc2ccc(I)cc2)C(=O)N2CCC[C@H]2C(=O)N[C@H](Cc2ccc(-c3ccccc3)cc2)C(=O)O)C[C@@H]2CCCC[C@@H]21)N(C)C(=O)[C@@H](CCCNC(=N)N)NC(=O)[C@@H]1CCCN1C(=O)[C@H](CCCCNC(=N)N)NC(=O)[C@H](CCC(N)=O)NC(=O)[C@@H](CCCNC(=N)N)NC(=O)[C@H](CCCCNC(=N)N)NC(=O)COCCOCCNC(=O)COCCOCCNC(=O)CC[C@H](NC(=O)CCCCC(=O)O)C(=O)O | 0.0061 | 2.32 h | 15% | 0.682 µM·h | 0.139 L/kg | 76% | 1.2 nM | 58% | 4.7 h | 1.98 µM·h | 0.92 mL/min/kg | 4.1 h | > 90% | 4.1 nM | 152 mL/min/kg
